Three compounds from patent US8653100B2 (AbbVie Inc., priority 2008, dated 2014) can be followed below.

Bounds are passed on as bounds.

In one assay the target is human GlyT1c (Homo sapiens (Human), UniProt P48067). Nature of the assay: [3H]-Glycine uptake into recombinant CHO cells expressing human GlyT1. It is filed as cell-based. The following applies: hGlyT1c_5_CHO cells, 200 nM [3H]-glycine. An outline of the steps: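 hGlyT1c-expressing CHO cells plated at 20,000 cells/well and cultured 24 h; [3H]-glycine incorporation read continuously by solid-phase scintillation for up to 3 h. IC50 from four-parameter logistic fit using the linear uptake phase between 60 and 120 min.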

A further assay deals with human GlyT1c transporter (Homo sapiens (Human), UniProt P48067). As to the kind of experiment: Radioligand binding assay using recombinant CHO cell membranes expressing human GlyT1. The following applies: examples 88-204, radioligand not specified by footnote, read-out: radioligand binding Kiapp. An outline of the steps:
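Competition binding of [^3H]-(R)-NPTS (0.5 nM) to CHO membranes expressing human GlyT1c (50 μg/ml protein) in pH 7.5 Hepes/NaCl buffer with 1% DMSO, 1 h at room temperature. Non-specific binding defined with 10 μM Org24598; filtration and scintillation counting, one-site fit, Ki via Cheng-Prusoff.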

human GlyT1c transporter, sequence (P48067 whole entry): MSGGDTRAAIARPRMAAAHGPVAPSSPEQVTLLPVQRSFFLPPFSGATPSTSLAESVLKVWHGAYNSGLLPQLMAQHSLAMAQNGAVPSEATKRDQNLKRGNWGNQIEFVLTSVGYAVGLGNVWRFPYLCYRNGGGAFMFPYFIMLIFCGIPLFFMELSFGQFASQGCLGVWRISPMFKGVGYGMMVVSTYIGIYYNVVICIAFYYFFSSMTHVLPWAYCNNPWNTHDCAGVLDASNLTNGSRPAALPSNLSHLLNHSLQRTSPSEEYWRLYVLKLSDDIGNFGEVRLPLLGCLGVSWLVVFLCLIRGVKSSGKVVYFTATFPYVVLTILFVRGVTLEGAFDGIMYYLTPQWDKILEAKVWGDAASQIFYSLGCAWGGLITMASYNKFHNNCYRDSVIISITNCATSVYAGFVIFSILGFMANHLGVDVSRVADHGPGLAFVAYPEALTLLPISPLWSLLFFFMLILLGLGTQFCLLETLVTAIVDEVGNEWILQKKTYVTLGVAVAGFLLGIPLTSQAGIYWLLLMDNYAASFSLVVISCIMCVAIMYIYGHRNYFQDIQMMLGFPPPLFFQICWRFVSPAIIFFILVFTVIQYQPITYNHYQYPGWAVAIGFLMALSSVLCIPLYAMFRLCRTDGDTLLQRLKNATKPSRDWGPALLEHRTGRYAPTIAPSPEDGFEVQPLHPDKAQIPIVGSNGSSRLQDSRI
human GlyT1c, sequence (P48067 whole entry): as above

With `O=S(=O)(CCCN1CCCCC1)NCCOc1ccc2c(c1)C(C1(c3ccc(Cl)cc3)CCC1)NCC2` (stereo not drawn) [Example 200, N-[2-({1-[1-(4-Chlorophenyl)cyclobutyl]-1,2,3,4-tetrahydroisoquinolin-7-yl}oxy)ethyl]-3-(piperidin-1-yl)propane-1-sulfonamide (2E)-but-2-enedioate], at human GlyT1c, the concentration for half-maximal inhibition (IC50) (in general, the concentration needed to halve the response being measured) was ≤ 10 µM. On human GlyT1c transporter, the Ki was ≤ 100 µM.
For `O=S(=O)(CCCN1CCOCC1)NCCOc1ccc2c(c1)C(C1(c3ccc(Cl)cc3)CCC1)NCC2` (stereo not drawn) [Example 201, N-[2-({1-[1-(4-Chlorophenyl)cyclobutyl]-1,2,3,4-tetrahydroisoquinolin-7-yl}oxy)ethyl]-3-(morpholin-4-yl)propane-1-sulfonamide (2E)-but-2-enedioate] the same measures were ≤ 100 µM and ≤ 100 µM.
For `CCNC(=O)NCCS(=O)(=O)NCCOc1ccc2c(c1)C(C1(c3ccc(Cl)cc3)CCC1)NCC2` (stereo not drawn) [Example 202, N-[2-({1-[1-(4-Chlorophenyl)cyclobutyl]-1,2,3,4-tetrahydroisoquinolin-7-yl}oxy)ethyl]-2-[(ethylcarbamoyl)amino]ethanesulfonamide (2E)-but-2-enedioate] the same measures were ≤ 10 µM and ≤ 100 µM.
